Assay [1] deals with T1, Endothelial lipase (Mus musculus, UniProt Q9WVG5).
T1 sequence (Q9WVG5 whole entry): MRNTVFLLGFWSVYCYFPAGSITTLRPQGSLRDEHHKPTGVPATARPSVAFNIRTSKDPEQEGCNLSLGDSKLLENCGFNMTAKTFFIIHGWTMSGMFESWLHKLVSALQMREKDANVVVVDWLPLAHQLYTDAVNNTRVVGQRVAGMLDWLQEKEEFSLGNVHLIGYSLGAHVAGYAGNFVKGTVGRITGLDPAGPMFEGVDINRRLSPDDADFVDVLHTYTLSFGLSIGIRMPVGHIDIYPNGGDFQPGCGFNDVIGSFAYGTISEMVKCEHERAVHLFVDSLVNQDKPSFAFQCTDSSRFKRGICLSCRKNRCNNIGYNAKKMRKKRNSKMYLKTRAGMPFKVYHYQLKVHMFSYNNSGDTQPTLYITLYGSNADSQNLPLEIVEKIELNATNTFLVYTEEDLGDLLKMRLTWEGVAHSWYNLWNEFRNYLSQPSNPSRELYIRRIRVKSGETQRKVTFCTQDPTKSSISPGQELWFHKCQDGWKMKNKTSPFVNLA
Put plainly: Inhibition of mouse endothelial lipase using PLAi as substrate measured for 30 mins by cell-based fluorescence assay.

The target of assay [2] is T2, Endothelial lipase (Homo sapiens, UniProt Q9Y5X9).
T2 sequence (Q9Y5X9 whole entry): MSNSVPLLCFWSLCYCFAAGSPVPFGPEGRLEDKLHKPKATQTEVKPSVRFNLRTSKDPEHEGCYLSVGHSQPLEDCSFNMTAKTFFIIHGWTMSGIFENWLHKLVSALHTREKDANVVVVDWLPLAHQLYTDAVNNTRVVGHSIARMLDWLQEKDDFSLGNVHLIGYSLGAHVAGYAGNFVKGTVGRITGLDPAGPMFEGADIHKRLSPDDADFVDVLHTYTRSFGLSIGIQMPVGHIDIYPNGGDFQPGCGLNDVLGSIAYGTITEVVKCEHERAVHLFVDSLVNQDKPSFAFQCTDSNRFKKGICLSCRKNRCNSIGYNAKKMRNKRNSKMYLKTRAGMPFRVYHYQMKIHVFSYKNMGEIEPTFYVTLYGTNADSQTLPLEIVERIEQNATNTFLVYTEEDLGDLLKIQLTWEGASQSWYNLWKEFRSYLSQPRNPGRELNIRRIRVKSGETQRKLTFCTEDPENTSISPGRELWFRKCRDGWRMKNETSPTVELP
Nature of the assay: Inhibition of human endothelial lipase using PLAi as substrate measured for 30 mins by cell-based fluorescence assay.

These results are taken from ChEMBL document CHEMBL3091422, “Endothelial lipase inhibitors for the treatment of atherosclerosis and cardiovascular disorders” (ACS Med Chem Lett, 2013).

Usually IC50 stands for the concentration needed to halve the response being measured. High values mean weaker potency in that assay, low ones greater potency in that assay. On to `Nc1cc2c3c(c1)c(C(F)(F)F)c(CCCc1ccccc1)n3CCC2`, for which the IC50 against Endothelial lipase [1] and against Endothelial lipase [2] was 0.004 µM each time.

For `COc1cc2c3c(c1)c(C(F)(F)F)c(CCc1ccccc1)n3CCC2`, the IC50 at Endothelial lipase [1] was 0.017 µM; at Endothelial lipase [2], 0.014 µM.

Consider `FC(F)(F)c1c(CCCc2ccccc2)n2c3c(cccc13)SCC2`, for which the concentration for half-maximal inhibition (IC50) at Endothelial lipase [1] and against Endothelial lipase [2] was 33.3 µM throughout.
